Legend:
Type in all cases: cell-based
TRPM8 = molecular target: T1, TRPM8 (Homo sapiens, UniProt Q7Z2W7); assay: Calcium mobilization assay (HTS and dose-response) on HEK-293/hTRPM8 cells; settings: for Max inhibition: HTS campaign, Cooling agent 10 30 μM, %inhibition values obtained at 10 mM (so in the source)
T1 construct: expressed in transfected cells
Method: All experiments were performed on HEK-293/hTRPM8 cells stably transfected with the human TRPM8 gene, except for site-directed mutagenesis analysis, which was performed on transient transfectants. In details, HEK-293 cells (ATCC, Manassas, Virginia) were transfected with the pcDNA3/hTRPM8 vector by electroporation (300 Volts, 950 µF) then selected with medium containing 0,8 mg/ml G418 for 10–15 days. Then the stable transfected pool underwent two rounds of limiting dilutions, in eight 96 well plates at a cell density of 1 cell/well, in order to obtain pure clones. The best responder clone was selected based on its response to 1 mM menthol in calcium mobilization experiments. HEK-293/hTRPM8 cells were maintained in EMEM (Minimum Essential Medium Eagle with Earl’s salts Balanced Salt Solution, LONZA) supplemented with 2 mM Ultraglutamine1 (Lonza), 1% Penicillin/Streptomycin (LONZA), 10% of Fetal Bovine Serum (Euroclone) and 0,4 mg/mL G418 (InvivoGen).
For calcium mobilization assays, cells were seeded at 10,000 cells/well in 384-well plates coated with poly-D-lysine (MATRIX black/clear bottom #4332-CPL, Thermo Scientific, Waltham, MA, USA) in complete medium.Twenty-four hours after seeding, the plates were washed with Tyrode’s buffer with a Bio-Tek-ELx405 Microplate Washer (Merck Millipore; Billerica, MA, USA), and then 10 µl/well of a solution containing the fluorescent Ca^2+ indicator Fluo-4 NW dye was added. Cells were incubated for 1 h at room temperature before test compounds were added at 3X the concentration with respect to the final wanted concentration to be tested with a FLIPR TETRA system (Molecular Devices, Sunnyvale, CA, USA). Calcium mobilization was monitored over a period of 5 min. A second injection of 10 µl/well of a reference agonist (icilin or Cooling agent 10) at 4X concentration in assay buffer was performed using the FLIPR TETRA system. Of note, for selectivity assays, the following agonists were used: 10 μM AITC (allyl isothiocyanate) for TRPA1; 100 nM Capsaicin for TRPV1; and 20 nM GSK1016790A for TRPV4.
After addition of the agonist, the fluorescence signal was recorded over the next 3 min. The bioactivity exerted by the compounds was expressed as a percentage of inhibition. The percentage scale is defined as follows: 100% inhibition was considered as the relative fluorescence units (RFUs) of the value of the MIN controls in the second injection (antagonist Capsazepine at IC100 = 50 µM) and 0% inhibition was considered as the RFU values of the value of the MAX controls in the second injection (Cooling agent 10 at EC80 = 30 µM). Data from four replicates were analyzed using GraphPad PRISM® software (version 5, GraphPad Software Inc.) to calculate the mean and standard error of the mean, to create sigmoidal concentration-response curves and to calculate IC50 values.

TRPM8 Y745A = molecular target: T2, TRPM8 Y745A (Homo sapiens, UniProt Q7Z2W7, Y745A); assay: Calcium mobilization on transiently transfected TRPM8 Y745A mutant; settings: agonist calcium response
T2 construct: expressed in transfected cells; host or cells: HEK-293, transient (Lipofectamine 2000)
Excerpt: (§1) Single point mutations were introduced in the hTRPM8-coding sequence, and the mutated TRPM8 was cloned as N-terminal c-myc tagged version into the pcDNA3 expression vector. This was done in that way that the single variations could be easily swapped from the myc-tagged expression construct into the non-tagged TRPM8 wild type expression construct.
(§2) The list of the variants is the following: variant 1, t2233g, a2234c (=Y745A); variant 2, a2236g, t2237c (=I746A); variant 3, a2395g, a2396c (=N799A) and variant 4, a2405c (D802A). The cloning project comprised three steps. First of all, a unique XhoI restriction site was inserted by site-directed mutagenesis (SDM) using DNA of the pcDNA3_TRPM8 construct as template. The 0.6 kb DNA fragment between the unique 5′ XhoI (introduced) and 3′ BamHI (already present) restriction sites comprised all positions of the four single point mutations and could be later used for their insertion as well as swapping between myc-tagged and non-tagged TRPM8 versions. In a second step, the c-myc tag sequence was introduced embedded within the TRPM8 coding sequence by PCR primers in two partially overlapping PCRs that were then joined by bridge PCR with the external 5′KpnI and internal 3′EcoRI primers and in the last step the point mutations 1 to 4 were inserted into pcDNA3_c-myc-TRPM8 by exchanging the wild type 5′XhoI-3′BamHI fragment (0.6 kb) with each of the corresponding variation fragment derived from synthetic DNA (provided by GeneArt, ThermoFisher Scientific).The myc-tagged constructs were transiently transfected in HEK-293 cells with Lipofectamine 2000 (Invitrogen) according to the manufacturer’s protocol. The pcDNA vectors containing the wt myc-tagged TRPM8 gene and the empty pcDNA3 (mock) were separately transfected into HEK-293 cells as controls. […] The obtained data from at least four wells (as replicates) were analyzed with GraphPad PRISM® software (version 5, GraphPad Software Inc.) to calculate the mean and standard error of the mean[58], to create sigmoidal concentration-response curves and to calculate IC50 values.

TRPM8 N799A = molecular target: T3, TRPM8 N799A (Homo sapiens, UniProt Q7Z2W7, N799A); assay: Calcium mobilization on transiently transfected TRPM8 N799A mutant; settings: agonist calcium response, N799A
T3 construct: expressed in transfected cells; host or cells: HEK-293, transient (Lipofectamine 2000)
Excerpt: as §1
(§3) The list of the variants is the following: variant 1, t2233g, a2234c (=Y745A); variant 2, a2236g, t2237c (=I746A); variant 3, a2395g, a2396c (=N799A) and variant 4, a2405c (D802A). The cloning project comprised three steps. First of all, a unique XhoI restriction site was inserted by site-directed mutagenesis (SDM) using DNA of the pcDNA3_TRPM8 construct as template. The 0.6 kb DNA fragment between the unique 5′ XhoI (introduced) and 3′ BamHI (already present) restriction sites comprised all positions of the four single point mutations and could be later used for their insertion as well as swapping between myc-tagged and non-tagged TRPM8 versions. In a second step, the c-myc tag sequence was introduced embedded within the TRPM8 coding sequence by PCR primers in two partially overlapping PCRs that were then joined by bridge PCR with the external 5′KpnI and internal 3′EcoRI primers and in the last step the point mutations 1 to 4 were inserted into pcDNA3_c-myc-TRPM8 by exchanging the wild type 5′XhoI-3′BamHI fragment (0.6 kb) with each of the corresponding variation fragment derived from synthetic DNA (provided by GeneArt, ThermoFisher Scientific).The myc-tagged constructs were transiently transfected in HEK-293 cells with Lipofectamine 2000 (Invitrogen) according to the manufacturer’s protocol. The pcDNA vectors containing the wt myc-tagged TRPM8 gene and the empty pcDNA3 (mock) were separately transfected into HEK-293 cells as controls. Cells were transfected and seeded on the same day at 17,500 cells/well in poly-D-lysine-coated 384-well plates (MATRIX #4332-CPL). Twenty-four hours after seeding, the activity of transfected TRPM8 receptors was tested using the calcium mobilization assay as described above. The analysis was performed on the basis of ΔF/F° (normalized MAX-MIN), where ΔF is the MAX between time points 117 and 182 minus the MIN between time points TP114 and TP116, and F° is the basal signal at time point TP0. The obtained data from at least four wells (as replicates) were analyzed with GraphPad PRISM® software (version 5, GraphPad Software Inc.) to calculate the mean and standard error of the mean[58], to create sigmoidal concentration-response curves and to calculate IC50 values.

TRPM8 I746A = molecular target: T4, TRPM8 I746A (Homo sapiens, UniProt Q7Z2W7, I746A); assay: Calcium mobilization on transiently transfected TRPM8 I746A mutant; settings: agonist calcium response, I746A
T4 construct: expressed in transfected cells; host or cells: HEK-293, transient (Lipofectamine 2000)
Excerpt: as §1, §3

TRPM8 D802A = molecular target: T5, TRPM8 D802A (Homo sapiens, UniProt Q7Z2W7, D802A); assay: Calcium mobilization on transiently transfected TRPM8 D802A mutant; settings: agonist calcium response, D802A
T5 construct: expressed in transfected cells; host or cells: HEK-293, transient (Lipofectamine 2000)
Excerpt: as §1, §2

wt TRPM8 = molecular target: T6, wt TRPM8 (Homo sapiens, UniProt Q7Z2W7); assay: Calcium mobilization on HEK-293 cells transiently transfected with wt myc-tagged TRPM8; settings: agonist calcium response, wt; read-out: pIC50 of the agonist (agonist dose response), wt TRPM8 (converted)
T6 construct: expressed in transfected cells; host or cells: HEK-293, transient (Lipofectamine 2000)
Excerpt: as §1
The list of the variants is the following: variant 1, t2233g, a2234c (=Y745A); variant 2, a2236g, t2237c (=I746A); variant 3, a2395g, a2396c (=N799A) and variant 4, a2405c (D802A). The cloning project comprised three steps. First of all, a unique XhoI restriction site was inserted by site-directed mutagenesis (SDM) using DNA of the pcDNA3_TRPM8 construct as template. The 0.6 kb DNA fragment between the unique 5′ XhoI (introduced) and 3′ BamHI (already present) restriction sites comprised all positions of the four single point mutations and could be later used for their insertion as well as swapping between myc-tagged and non-tagged TRPM8 versions. […] The obtained data from at least four wells (as replicates) were analyzed with GraphPad PRISM® software (version 5, GraphPad Software Inc.) to calculate the mean and standard error of the mean[58], to create sigmoidal concentration-response curves and to calculate IC50 values.

T2 sequence (Q7Z2W7 whole entry Y745A): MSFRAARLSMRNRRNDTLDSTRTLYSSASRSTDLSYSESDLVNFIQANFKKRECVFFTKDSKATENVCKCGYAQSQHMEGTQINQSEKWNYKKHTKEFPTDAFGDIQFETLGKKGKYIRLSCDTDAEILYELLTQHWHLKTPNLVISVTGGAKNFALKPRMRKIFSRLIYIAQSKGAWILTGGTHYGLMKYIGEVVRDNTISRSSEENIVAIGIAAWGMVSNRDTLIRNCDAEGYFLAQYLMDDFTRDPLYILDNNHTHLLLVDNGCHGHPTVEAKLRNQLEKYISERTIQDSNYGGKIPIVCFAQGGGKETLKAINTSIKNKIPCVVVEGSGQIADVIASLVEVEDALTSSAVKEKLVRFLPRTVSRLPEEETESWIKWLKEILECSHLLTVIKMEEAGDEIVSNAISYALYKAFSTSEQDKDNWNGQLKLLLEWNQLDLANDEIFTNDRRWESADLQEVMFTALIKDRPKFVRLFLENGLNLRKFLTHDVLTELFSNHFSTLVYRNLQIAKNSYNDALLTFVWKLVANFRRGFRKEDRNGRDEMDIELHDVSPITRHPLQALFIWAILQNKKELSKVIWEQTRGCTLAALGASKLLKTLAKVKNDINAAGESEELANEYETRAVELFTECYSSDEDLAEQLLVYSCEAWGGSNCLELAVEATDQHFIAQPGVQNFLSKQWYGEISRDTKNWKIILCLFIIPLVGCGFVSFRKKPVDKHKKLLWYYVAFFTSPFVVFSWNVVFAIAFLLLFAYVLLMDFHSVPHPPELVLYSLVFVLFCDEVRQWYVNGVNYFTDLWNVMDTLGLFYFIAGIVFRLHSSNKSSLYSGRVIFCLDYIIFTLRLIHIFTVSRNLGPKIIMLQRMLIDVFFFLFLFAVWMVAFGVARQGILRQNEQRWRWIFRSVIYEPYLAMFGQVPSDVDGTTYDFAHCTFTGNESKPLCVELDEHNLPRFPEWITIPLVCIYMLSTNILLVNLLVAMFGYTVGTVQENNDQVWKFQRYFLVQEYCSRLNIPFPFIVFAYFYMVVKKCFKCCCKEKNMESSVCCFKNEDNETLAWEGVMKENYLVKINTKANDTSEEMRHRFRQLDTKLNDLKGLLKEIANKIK
T3 sequence (Q7Z2W7 whole entry N799A): as the sequence (Q7Z2W7 whole entry Y745A) above, with A745Y, N799A counted along it
T4 sequence (Q7Z2W7 whole entry I746A): as the sequence (Q7Z2W7 whole entry Y745A) above, with A745Y, I746A counted along it
T1 sequence (Q7Z2W7 whole entry): as the sequence (Q7Z2W7 whole entry Y745A) above, with A745Y counted along it
T5 sequence (Q7Z2W7 whole entry D802A): as the sequence (Q7Z2W7 whole entry Y745A) above, with A745Y, D802A counted along it
T6 sequence (Q7Z2W7 whole entry): as the sequence (Q7Z2W7 whole entry Y745A) above, with A745Y counted along it

Compound | Max inhibition (TRPM8) [%] | Agonist activity on Y745A mutant (words) (TRPM8 Y745A) | Agonist activity on I746A mutant (words) (TRPM8 I746A) | Agonist activity on N799A mutant (words) (TRPM8 N799A) | also measured
Oc1cc2c(cc1O)CN(C(=S)NCCc1ccc(Cl)cc1)CCC2 [Capsazepine, reference compound] |  |  |  |  | IC100 (TRPM8; MIN control antagonist): 50 µM
O=C(NCOCc1ccc2ccccc2c1)c1cccnc1 [Compound 2] | 7.92 |  |  |  | 
O=C(COc1ccc2ccccc2c1)NCc1cccnc1 [Compound 3] | 0.00 |  |  |  | 

More lines, main results first:

Max inhibition (TRPM8) [%] | Agonist activity on Y745A mutant (words) (TRPM8 Y745A) | Agonist activity on I746A mutant (words) (TRPM8 I746A) | Compound | Agonist activity on N799A mutant (words) (TRPM8 N799A) | also measured
0.00 |  |  | O=C(NCOCc1ccc2ccccc2c1)c1cncc(Br)c1 [Compound 4] |  | 
 | completely abolished the activation | minimal residual activation | CC1CCC(C(C)C)C(OCC(O)CO)C1 (stereo not drawn) [Cooling agent 10] | did not affect either maximal TRPM8 activation or EC50 | EC80 (TRPM8; MAX control agonist): 30000 nM; Agonist activity on I746A mutant (words) (TRPM8 I746A; listed as Cooling Agent 10): strongly reduced agonist activity
 | abrogated agonist activity | minimal residual activation | O=C1NC(c2cccc([N+](=O)[O-])c2)=CCN1c1ccccc1O [Icilin, icilin] | abrogated agonist activity | Agonist activity on D802A mutant (words) (TRPM8 D802A): abrogated agonist activity; Agonist activity on D802A mutant (words) (TRPM8 D802A; listed as icilin): completely abolished TRPM8 activation; EC50 (wt TRPM8): 251 nM; Agonist activity on Y745A mutant (words) (TRPM8 Y745A; listed as icilin): completely abolished the activation; Agonist activity on N799A mutant (words) (TRPM8 N799A; listed as icilin): completely abolished TRPM8 activation; EC50 (TRPM8 I746A; read-out: pIC50 of the agonist (agonist dose response), I746A (converted)): 126 nM

— article PMC5591244, “Novel selective, potent naphthyl TRPM8 antagonists identified through a combined ligand- and structure-based virtual screening approach” (Scientific Reports, 2017)
